The record followed here is US6960589B2, “Benzimidazoles that are useful in treating sexual dysfunction” (Abbott Laboratories, priority 2001, dated 2005).

Several values for one entry are separate records, joined by “and”; a condition that tells them apart may be missing. Equal values may be shown once.

One series relates to Male Fitch ferrets. Also on record: species or system ferret. The note with it: in vivo, sc. Here is the method: Male Fitch ferrets (body weights 1.0-1.5 kg) were obtained from Marshall Farms. Ferrets were fasted overnight before experimentation. Apomorphine or a compound of the present invention was administrated subcutaneously; animals were placed individually in observation cages and the drug-induced emesis and signs of nausea were determined (by direct observation) for a period of 90 minutes following drug injection. Nausea was characterized by behaviors such as licking, gagging, backing, head burying, and intense abdominal grooming. Emesis was usually preceded by these behaviors and was characterized by rhythmic abdominal contractions which were associated with vomiting or retching movement.
Sterile saline was used as vehicle. Six animals were used per dose.

In another series the test system is Wistar rats. Nature of the series: Rat penile erection model. It is filed as in vivo. The note with it: for Induction of penile erections in rats (result in words): subcutaneous administration, doses of 0.01 μmol/kg to 0.10 μmol/kg. The procedure:
Wistar rats were used as a primary animal model to study penile erection in vivo. All experiments were carried out between 9:00 AM and 3:00 PM in a diffusely illuminated testing room with a red light. Animals were weighed and allowed to adapt to the testing room for 60 minutes before the beginning of experiments. Rats were placed individually in a transparent cage (20×30×30 cm) after drug injection.
(L)-Ascorbic acid in saline (1 mg/mL) was used as vehicle. Twelve animals were used per dose.

In the case of `c1ccc(N2CCN(Cc3nc4ccccc4[nH]3)CC2)nc1` [2-[(4-pyridin-2-ylpiperazin-1-yl)methyl]-1H-benzimidazole], the “Induction of emesis in ferrets (result in words)” value in the series on Male Fitch ferrets is reported as “did not induce emesis”. Further, the “Induction of penile erections in rats (result in words)” value in the series on Wistar rats is reported as “induced statistically significant penile erections”. The molecule `Oc1ccc(N2CCN(Cc3nc4ccccc4[nH]3)CC2)nc1` [6-[4-(1H-benzimidazol-2-ylmethyl)piperazin-1-yl]pyridin-3-ol] came in with a melting point of 144 to 145 °C. For the same molecule, in the series on Wistar rats, the “Induction of penile erections in rats (result in words)” value is listed as “induced statistically significant penile erections”. For the molecule `CN1CCc2cccc3c2[C@H]1Cc1ccc(O)c(O)c1-3` [Apomorphine, (6aR) 5,6,6a,7-tetrahydro-6-methyl-4H-dibenzo[de,g]quinoline-10,11-diol, reference compound], the “Incidence (%) of penile erection (animals exhibiting 1 or more erections)” value in the series with Wistar rats (rats, dose 0.1 μmol/kg, observed 60 minutes after dosing) is 83% and 93%. As for `c1cnc(N2CCN(Cc3nc4ccccc4[nH]3)CC2)nc1` [Example 2, 2-[(4-pyrimidin-2-ylpiperazin-1-yl)methyl]-1H-benzimidazole], the melting point lay within 198 to 200 °C. Same read-out and setting: in the case of `N#Cc1cccnc1N1CCN(Cc2nc3ccccc3[nH]2)CC1` [Example 4, 2-[4-(1H-benzimidazol-2-ylmethyl)piperazin-1-yl]nicotinonitrile] it was 208 to 210 °C; in that of `c1ccc2[nH]c(CN3CCN(c4nccs4)CC3)nc2c1` [Example 7, 2-{[4-(1,3-thiazol-2-yl)piperazin-1-yl]methyl}-1H-benzimidazole], 203 to 205 °C. Same read-out and setting: in the case of `O=C(N1CCCC1)n1c(CN2CCN(c3ccccn3)CC2)nc2ccccc21` [Example 9, 2-[(4-pyridin-2-ylpiperazin-1-yl)methyl]-1-(pyrrolidin-1-ylcarbonyl)-1H-benzimidazole] it was 120 to 121 °C; in that of `CN(C)C(=O)n1c(CN2CCN(c3ccccn3)CC2)nc2ccccc21` [Example 10, N,N-dimethyl-2-[(4-pyridin-2-ylpiperazin-1-yl)methyl]-1H-benzimidazole-1-carboxamide], 174 to 176 °C. The same measure, in the same setting: in the case of `N#Cc1ccccc1N1CCN(Cc2nc3ccccc3[nH]2)CC1` [Example 12, 2-[4-(1H-benzimidazol-2-ylmethyl)piperazin-1-yl]benzonitrile] it was 236 to 237 °C; in that of `Fc1ccccc1N1CCN(Cc2nc3ccccc3[nH]2)CC1` [Example 14, 2-{[4-(2-fluorophenyl)piperazin-1-yl]methyl}-1H-benzimidazole], 262 to 264 °C.

As for `Oc1ccc(N2CCN(Cc3nc4ccccc4[nH]3)CC2)cc1` [Example 17, 4-[4-(1H-benzimidazol-2-ylmethyl)piperazin-1-yl]phenol], the melting point was 206 to 209 °C. On the same count and under the same terms, in the case of `CSc1ccccc1N1CCN(Cc2nc3ccccc3[nH]2)CC1` [Example 18, 2-({4-[2-(methylthio)phenyl]piperazin-1-yl}methyl)-1H-benzimidazole] it was 214 to 216 °C; in that of `CCOc1ccccc1N1CCN(Cc2nc3ccccc3[nH]2)CC1` [Example 19, 2-{[4-(2-ethoxyphenyl)piperazin-1-yl]methyl}-1H-benzimidazole], 95 to 100 °C. Same read-out and setting: as for `Oc1ccccc1N1CCN(Cc2nc3ccccc3[nH]2)CC1` [Example 20, 2-[4-(1H-benzimidazol-2-ylmethyl)piperazin-1-yl]phenol], the figure is 208 to 216 °C; as for `CC1CN(c2ccccn2)CCN1Cc1nc2ccccc2[nH]1` (centres unmarked) [Example 24, 2-[(2-methyl-4-pyridin-2-ylpiperazin-1-yl)methyl]-1H-benzimidazole], 207 to 209 °C. The same measure, in the same setting: in the case of `C[C@H]1CN(c2ccccn2)CCN1Cc1nc2ccccc2[nH]1` [Example 25, 2-{[(2S)-2-methyl-4-pyridin-2-ylpiperazin-1-yl]methyl}-1H-benzimidazole] it was 149 to 151 °C. For the molecule `C[C@@H]1CN(c2ccccn2)CCN1Cc1nc2ccccc2[nH]1` [Example 26, 2-{[(2R)-2-methyl-4-pyridin-2-ylpiperazin-1-yl]methyl}-1H-benzimidazole], the melting point fell in the range of 151 to 153 °C. On the same count and under the same terms, in the case of `Fc1cccnc1N1CCN(Cc2nc3ccccc3[nH]2)CC1` [Example 28, 2-{[4-(3-fluoropyridin-2-yl)piperazin-1-yl]methyl}-1H-benzimidazole] it was 210 to 212 °C.

The term melting point denotes the temperature of the solid-liquid transition.
